Data from BindingDB's records for doi:10.1016/j.bmc.2020.115681 (Takeda Pharmaceuticals International, 2020).

Experiments:
[1] = biological target: T1, Ubiquitin-like modifier-activating enzyme ATG7 (Homo sapiens, UniProt O95352); experiment: Inhibition of recombinant His-tagged human ATG7 incubated for 105 mins in presence of GST-tagged ATG3 and Flag-tagged Gabarap and measured after 2 hrs by FRET assay relative to control
T1 sequence (O95352 whole entry): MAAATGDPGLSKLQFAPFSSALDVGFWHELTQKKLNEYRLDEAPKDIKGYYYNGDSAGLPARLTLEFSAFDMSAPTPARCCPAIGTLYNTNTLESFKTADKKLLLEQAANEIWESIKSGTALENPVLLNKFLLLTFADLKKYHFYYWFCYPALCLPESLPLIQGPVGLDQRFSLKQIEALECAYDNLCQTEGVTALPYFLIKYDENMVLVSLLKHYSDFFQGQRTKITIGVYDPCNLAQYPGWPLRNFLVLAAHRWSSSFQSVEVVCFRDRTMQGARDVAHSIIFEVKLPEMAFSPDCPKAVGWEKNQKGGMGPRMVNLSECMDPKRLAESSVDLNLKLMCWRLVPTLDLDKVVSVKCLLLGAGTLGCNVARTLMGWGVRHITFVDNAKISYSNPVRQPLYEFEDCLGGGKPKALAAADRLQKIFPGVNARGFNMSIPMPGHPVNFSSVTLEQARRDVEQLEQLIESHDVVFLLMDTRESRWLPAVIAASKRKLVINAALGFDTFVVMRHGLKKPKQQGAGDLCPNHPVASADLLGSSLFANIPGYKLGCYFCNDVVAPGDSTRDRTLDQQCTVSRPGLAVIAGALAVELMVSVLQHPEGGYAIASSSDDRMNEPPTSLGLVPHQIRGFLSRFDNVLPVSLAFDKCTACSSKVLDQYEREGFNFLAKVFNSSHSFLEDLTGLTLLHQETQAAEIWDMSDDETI

[2] = biological target: T1, Ubiquitin-like modifier-activating enzyme ATG7; experiment: Inhibition of ATG7 in human 293HEK cells assessed as inhibition of ATG7:ATG8 thioester formation after 4 hrs by Western blot analysis

SMILES	IC50 [1]	IC50 [2]
Cc1cccc(Sc2nn([C@@H]3O[C@H](COS(N)(=O)=O)[C@@H](O)[C@@H]3F)c3ncnc(N)c23)c1 [[(2R,3R,4S,5R)-5-{4-amino-3-[(3-methylphenyl)sulfanyl]-1H-pyrazolo[3,4-d]pyrimidin-1-yl}-4-fluoro-3-hydroxytetrahydrofuran-2-yl]methyl sulfamate]	35 nM	–
CSc1nn([C@H]2C[C@H](O)[C@H](COS(N)(=O)=O)O2)c2ncnc(N)c12 [{(2S,3S,5R)-5-[4-amino-3-(methylsulfanyl)-1H-pyrazolo[3,4-d]pyrimidin-1-yl]-3-hydroxytetrahydrofuran-2-yl}methyl sulfamate]	–	295 nM
